Results published in ChEMBL document CHEMBL1125127 (J Med Chem, 1990).

How the values were obtained:
Canis familiaris [1] = assay: Concentration that causes a 20% increase in APD95 (action potential duration at 95% repolarization) from control value in anesthetized dogs; type: functional, Canis lupus familiaris
Canis familiaris [2] = assay: Percent change in heart rate (HR) from control at active dose 10-30 mg/kg administered intraperitoneally; type: functional, Canis lupus familiaris
[3] = Ratio of number of active animals to number of treated at dose 1.0 mg/kg administered intraperitoneally in Epinephrine-induced model in anesthetized dogs; 4/4; type: functional; conditions: route intraperitoneal
Canis familiaris [4] = assay: Concentration at which maximum change in […] was observed from control value in anesthetized dogs; The maximum observed change APD95 from control value and concentration at 100 uM when this occurred; type: functional, Canis lupus familiaris
Canis familiaris [5] = assay: Percent change in FRP from control at active dose 10-30 mg/kg administered intraperitoneally in anesthetized dogs; type: functional, Canis lupus familiaris
Canis familiaris [6] = assay: Percent change in blood pressure (BP) from control at active dose 0.3-10 mg/kg administered intraperitoneally in anesthetized dogs; type: functional, Canis lupus familiaris
Canis familiaris [7] = assay: Percent change in heart rate (HR) from control at active dose 0.3-10 mg/kg administered intraperitoneally in anesthetized dogs; type: functional, Canis lupus familiaris
Canis familiaris [8] = assay: Percent change in blood pressure (BP) from control at active dose 10-30 mg/kg administered intraperitoneally in anesthetized dogs; type: functional, Canis lupus familiaris
Canis familiaris [9] = assay: Percent change in FRP from control at active dose 0.3-10 mg/kg administered intraperitoneally; type: functional, Canis lupus familiaris
[10] = Ratio of number of active animals to number of treated at dose 3.0 mg/kg administered intraperitoneally in Epinephrine-induced model in anesthetized dogs; 6/6; conditions: route intraperitoneal
Canis familiaris [11] = assay: Maximum change in […] from control value in anesthetized dogs; 10 uM.; type: functional, Canis lupus familiaris
[12] = target: Beta adrenergic receptor (Canis familiaris)
[13] = target: Beta-2 adrenergic receptor (Canis lupus familiaris, UniProt P54833)
Description: Tested for Beta-2 adrenergic receptor selectivity in canine lung tissue in anesthetized dogs

[14] = target: Beta-1 adrenergic receptor (Canis familiaris)
Canis familiaris [15] = assay: Percent change in heart rate (HR) from control at active dose 10 mg/kg administered intraduodenally; conditions: route intraduodenal
Canis familiaris [16] = assay: Concentration at which maximum change in […] was observed from control value in anesthetized dogs; The maximum observed change APD95 from control value and concentration at 10 uM when this occurred; type: functional, Canis lupus familiaris
Canis familiaris [17] = assay: Percent change in FRP from control at active dose 10 mg/kg administered intraperitoneally in anesthetized dogs; type: functional, Canis lupus familiaris; conditions: route intraperitoneal
[18] = Ratio of number of active animals to number of treated at dose 10 mg/kg administered intraperitoneally in anesthetized dogs; No of animals tested=2; type: functional; conditions: route intraperitoneal
Canis familiaris [19] = assay: Percent change in blood pressure (BP) from control at active dose 10 mg/kg administered intraperitoneally in anesthetized dogs; type: functional, Canis lupus familiaris; conditions: route intraperitoneal
[20] = Ratio of number of active animals to number of treated administered intraperitoneally in Epinephrine-induced model in anesthetized dogs; 4/8; conditions: route intraperitoneal
Canis familiaris [21] = assay: Percent change in heart rate (HR) from control at active dose 1.0-10 mg/kg administered intraperitoneally in anesthetized dogs; type: functional, Canis lupus familiaris
Canis familiaris [22] = assay: Percent change in heart rate (HR) from control at active dose 10 mg/kg administered intraduodenally; conditions: route intraduodenal; remark: listed apart in the source
[23] = Ratio of number of active animals to number of treated at dose 1.0 mg/kg administered intraperitoneally in Epinephrine-induced model in anesthetized dogs; 4/8; type: functional; conditions: route intraperitoneal
Canis familiaris [24] = assay: Percent change in FRP from control at active dose 1.0-10 mg/kg administered intraperitoneally; type: functional, Canis lupus familiaris
Canis familiaris [25] = assay: Percent change in blood pressure (BP) from control at active dose 1.0-10 mg/kg administered intraperitoneally in anesthetized dogs; type: functional, Canis lupus familiaris
[26] = Ratio of number of active animals to number of treated at dose 1.0-10 mg/kg administered intravenously in PES model in conscious dogs; 5/6
Canis familiaris [27] = assay: Concentration at which maximum change in […] was observed from control value in anesthetized dogs; The maximum observed change APD95 from control value and concentration at 30 uM when this occurred; type: functional, Canis lupus familiaris
Canis familiaris [28] = assay: Percent change in heart rate (HR) from control at active dose 10-30 mg/kg administered intraduodenally
[29] = Ratio of number of active animals to number of treated at dose 10-30 mg/kg administered intraperitoneally in anesthetized dogs; No of animals tested=3; type: functional
[30] = Ratio of number of active animals to number of treated animals; No of animals tested=2; type: functional
[31] = Ratio of number of active animals to number of treated at dose 30 mg/kg administered intraperitoneally in anesthetized dogs; No of animals tested=2; type: functional; conditions: route intraperitoneal
Canis familiaris [32] = assay: Percent change in blood pressure (BP) from control at active dose 30 mg/kg administered intraperitoneally in anesthetized dogs; type: functional, Canis lupus familiaris; conditions: route intraperitoneal
Canis familiaris [33] = assay: Percent change in FRP from control at active dose 30 mg/kg administered intraperitoneally in anesthetized dogs; type: functional, Canis lupus familiaris; conditions: route intraperitoneal
Canis familiaris [34] = assay: Percent change in heart rate (HR) from control at active dose 30 mg/kg administered intraduodenally; conditions: route intraduodenal

Beta-2 adrenergic receptor, sequence (P54833 whole entry): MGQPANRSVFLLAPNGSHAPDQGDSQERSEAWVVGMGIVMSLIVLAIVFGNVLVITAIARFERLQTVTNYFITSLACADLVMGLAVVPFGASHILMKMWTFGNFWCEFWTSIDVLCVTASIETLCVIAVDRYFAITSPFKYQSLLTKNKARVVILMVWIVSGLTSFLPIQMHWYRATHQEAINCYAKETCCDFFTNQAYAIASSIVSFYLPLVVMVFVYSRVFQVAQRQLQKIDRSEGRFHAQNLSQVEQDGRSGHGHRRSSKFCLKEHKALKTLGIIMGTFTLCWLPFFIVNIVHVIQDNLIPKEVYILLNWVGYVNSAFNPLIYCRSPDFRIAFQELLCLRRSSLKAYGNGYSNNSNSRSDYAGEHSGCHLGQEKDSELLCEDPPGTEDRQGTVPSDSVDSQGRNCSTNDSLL

**Q.** For CC(C)NCC(O)c1ccc(NS(C)(=O)=O)cc1 (configuration not stated) [SOTALOL], which C20 (Canis familiaris [1]) is on record?
**A.** 14.4 µM

**Q.** And the Change (Canis familiaris [2])?
**A.** -10%

**Q.** And the “No. of active/no. of tested” value [3]?
**A.** 4

**Q.** And the Max delta (Canis familiaris [4])?
**A.** 48%

**Q.** What about the Change (Canis familiaris [5]) of the same compound?
**A.** 17%

**Q.** What about the Change (Canis familiaris [6]) of the same compound?
**A.** 8%

**Q.** And the Change (Canis familiaris [7])?
**A.** -6%

**Q.** And the Change (Canis familiaris [8])?
**A.** 9%

**Q.** And the Change (Canis familiaris [9])?
**A.** 14%

**Q.** And the “No. of active/no. of tested” value [10]?
**A.** 6

**Q.** Which C20 (Canis familiaris [1]) does the source give for COCCc1ccc(OCC(O)CNCc2ccc(NS(C)(=O)=O)cc2)cc1 (configuration not stated) here?
**A.** 0.5 µM

**Q.** And the Max delta (Canis familiaris [11])?
**A.** 57%

**Q.** And the IC50 [12]?
**A.** 25.8 µM

**Q.** And the IC50 [13]?
**A.** 46 µM

**Q.** And the IC50 [14]?
**A.** 7.3 µM

**Q.** Which C20 (Canis familiaris [1]) does the source give for CS(=O)(=O)Nc1ccc(N2CCN(CC(O)COc3cccc4c3CCCC4=O)CC2)cc1 (configuration not stated) here?
**A.** 1.9 µM

**Q.** And the Change (Canis familiaris [15])?
**A.** -1%

**Q.** What about the Max delta (Canis familiaris [16]) of the same compound?
**A.** 48%

**Q.** What about the IC50 [12] of the same compound?
**A.** 8.4 µM

**Q.** And the Change (Canis familiaris [17])?
**A.** 12%

**Q.** What about the Ratio [18] of the same compound?
**A.** 1

**Q.** What about the Change (Canis familiaris [19]) of the same compound?
**A.** 18%

**Q.** What does the source list for Cc1ccccc1OCC(O)CN1CCN(c2ccc(NS(C)(=O)=O)cc2)CC1 (configuration not stated)?
**A.** C20 (Canis familiaris [1]): <4.5 µM; Ratio [20]: 0.5; Change (Canis familiaris [21]): -3%; Change (Canis familiaris [22]): -11%; Max delta (Canis familiaris [11]): 53%; No. effective [23]: 4; IC50 [12]: 2.3 µM; IC50 [13]: 6.6 µM; Change (Canis familiaris [17]): 13%; IC50 [14]: 3.3 µM; Ratio [18]: 2; Change (Canis familiaris [24]): 8%; Change (Canis familiaris [25]): 13%; No. effective [26]: 5; Change (Canis familiaris [19]): 11%

**Q.** With Cc1ccccc1OCC(O)CNCc1ccc(-n2ccnc2)cc1 (configuration not stated) as the compound, how does the C20 (Canis familiaris [1]) read?
**A.** 0.3 µM

**Q.** And the Max delta (Canis familiaris [11])?
**A.** 65%

**Q.** What about the IC50 [12] of the same compound?
**A.** 0.78 µM

**Q.** And the IC50 [13]?
**A.** 1.2 µM

**Q.** What about the IC50 [14] of the same compound?
**A.** 0.8 µM

**Q.** With CS(=O)(=O)Nc1ccc(C(=O)NCCNCC(O)COc2ccccc2C#N)cc1 (configuration not stated) as the compound, how does the C20 (Canis familiaris [1]) read?
**A.** 23.7 µM

**Q.** And the IC50 [12]?
**A.** 2.9 µM

**Q.** What about the Max delta (Canis familiaris [27]) of the same compound?
**A.** 31%

**Q.** For COCCc1ccc(OCC(O)CN2CCN(c3ccc(NS(C)(=O)=O)cc3)CC2)cc1 (configuration not stated), which C20 (Canis familiaris [1]) is on record?
**A.** 3.2 µM

**Q.** And the Change (Canis familiaris [5])?
**A.** 15%

**Q.** And the Max delta (Canis familiaris [11])?
**A.** 76%

**Q.** And the IC50 [12]?
**A.** 109 µM

**Q.** And the Change (Canis familiaris [8])?
**A.** 9%

**Q.** What about the Change (Canis familiaris [28]) of the same compound?
**A.** -12%

**Q.** And the No. effective [29]?
**A.** 3

**Q.** With COCCc1ccc(OCC(O)CNCCNC(=O)c2ccc(-n3ccnc3)cc2)cc1 (configuration not stated) as the compound, how does the C20 (Canis familiaris [1]) read?
**A.** <1.4 µM

**Q.** And the Max delta (Canis familiaris [11])?
**A.** 70%

**Q.** And the IC50 [12]?
**A.** 12.4 µM

**Q.** With COc1ccc(OCC(O)CNCCNC(=O)c2ccc(NS(C)(=O)=O)cc2)cc1 (configuration not stated) as the compound, how does the C20 (Canis familiaris [1]) read?
**A.** 0.6 µM

**Q.** What about the Max delta (Canis familiaris [11]) of the same compound?
**A.** 86%

**Q.** What about the IC50 [12] of the same compound?
**A.** 43.8 µM

**Q.** What about the Ratio [30] of the same compound?
**A.** 0

**Q.** What does the source list for COCCc1ccc(OCC(O)CN2CCN(C(=O)c3ccc(NS(C)(=O)=O)cc3)CC2)cc1 (configuration not stated)?
**A.** C20 (Canis familiaris [1]): 7.7 µM; Max delta (Canis familiaris [11]): 56%; IC50 [12]: 360 µM

**Q.** What does the source list for CS(=O)(=O)Nc1ccc(C(=O)NCCNCC(O)COc2ccccc2)cc1 (configuration not stated)?
**A.** C20 (Canis familiaris [1]): 7.1 µM; IC50 [12]: 3.9 µM; Ratio [30]: 0; Max delta (Canis familiaris [27]): 26%

**Q.** Which C20 (Canis familiaris [1]) does the source give for CS(=O)(=O)Nc1ccc(C(=O)NC2CCCCC2NCC(O)COc2ccccc2)cc1 (configuration not stated) here?
**A.** 5.3 µM

**Q.** And the Ratio [31]?
**A.** 2

**Q.** What about the Max delta (Canis familiaris [11]) of the same compound?
**A.** 45%

**Q.** And the IC50 [12]?
**A.** 192 µM

**Q.** And the Change (Canis familiaris [32])?
**A.** 17%

**Q.** What about the Change (Canis familiaris [33]) of the same compound?
**A.** 15%

**Q.** And the Change (Canis familiaris [34])?
**A.** -19%

**Q.** For CS(=O)(=O)Nc1ccc(C(=O)NCCNCC(O)COc2cccc3ccccc23)cc1 (configuration not stated), which C20 (Canis familiaris [1]) is on record?
**A.** 1.1 µM

**Q.** And the Max delta (Canis familiaris [11])?
**A.** 48%

**Q.** And the IC50 [12]?
**A.** 0.15 µM

**Q.** What about the Ratio [30] of the same compound?
**A.** 0

**Q.** With Cc1cccc(OCC(O)CNCc2ccc(NS(C)(=O)=O)cc2)c1 (configuration not stated) as the compound, how does the C20 (Canis familiaris [1]) read?
**A.** <1 µM

**Q.** What about the Max delta (Canis familiaris [11]) of the same compound?
**A.** 44%

**Q.** What about the IC50 [12] of the same compound?
**A.** 0.99 µM

**Q.** What about the IC50 [13] of the same compound?
**A.** 4.4 µM

**Q.** And the IC50 [14]?
**A.** 2.4 µM
